In patent US20090170899A1, “Stimulators of 5-HT4 receptors and uses thereof” (priority 2004, published 2009):

Tests used:
[1] = test system: hippocampal CA3 pyramidal neurons; test: Response of hippocampal CA3 pyramidal neurons to WAY 100635 after 3-day treatments (5-HT1A tonus); type: in vivo, rat; conditions: for 5-HT1A-mediated inhibitory tonus in the hippocampus: Example 7, 3 days, prucalopride 2.5, citalopram 10, RS 67333 1.5 mg/kg/day
Protocol: FIGS. 8A to 8C. […] Single-cell extracellular recordings were performed in the CA3 region of chloral-hydrate anaesthetized rats by using multiple-barrel glass microelectrodes, combined with microiontophoretic pumps (with the central barrel used for recordings). Pyramidal neurons were identified according to the classical criteria (see Example 5, the experimental procedures). The 5-HT4 agonists were administered through the use of osmotic minipumps, inserted subcutaneously in the region of the back. Recordings were performed with the minipumps still in place. *p<0.05, **p<0.01, ***p<0.001 vs control, Dunnett's test. […] FIG. 8C is a typical example showing the response of a single pyramidal neuron to cumulative doses of WAY 100635, in a rat co-administered with RS 67333 (same treatment as above for FIG. 8A) and the 5-HT depleter para-chlorophenylalanine (pCPA; 150 mg/kg, i.p. once daily 72, 48 and 24 h before the recordings).
Drugs and Chemicals. The following compounds were used: GR 125487 sulphamate, prucalopride monohydrochloride, citalopram hydrobromide (gifts from Glaxo, Janssen and Lundbeck laboratories, respectively), RS 67333 hydrochloride (Tocris Cookson Inc., Ellisville, Mo., USA), WAY 100635 hydrochloride (Research Biochemicals, Natick, Mass., USA), pCPA methyl ester hydrochloride, BrdU (Sigma-Aldrich Canada, Oakville, Ontario, Canada). All compounds were diluted in distilled water. All drug dosages refer to the free base. For chronic treatments, prucalopride (2.5 mg/kg/day), RS 67333 (1.5 mg/kg/day) or the vehicle were delivered through osmotic minipumps (Alza, Palo Alto, Calif., USA), inserted subcutaneously in the region of the back under short-duration (≦5 min) halothane anesthesia. The 5-HT depleter PCPA was administered once daily at the dose of 150 mg/kg, i.p., 72, 48 and 24 h before the recordings. BrdU treatments consisted of two administrations per day (50 mg/kg, i.p. each, 8 h interval), starting from the day of minipump insertion until day 2 post-surgery.
Microiontophoresis and extracellular recordings from hippocampal CA3 pyramidal neurons. Recording and microiontophoresis were performed with five-barreled glass micropipettes broken back to 8-12 μm under microscope control. The central barrel was filled with the same solution as in the DRN and was used for extracellular unitary recordings. Pyramidal neurons were identified by their large amplitude (0.5-1.2 mV) and long-duration (0.8-1.2 ms) simple spikes alternating with complex spike discharges (Kandel and Spencer, 1961). The side barrels contained the following solutions: quisqualate (1.5 mM in 200 mM NaCl, pH 8), WAY 100635 (15 mM in 200 mM NaCl, pH 4), and 2 M NaCl used for automatic current balancing. Rats were mounted in the stereotaxic apparatus and the micropipettes were lowered at 4.2 mm lateral and 4.2 anterior to lambda into the CA3 sub-region of the dorsal hippocampus.
The firing activity of dorsal hippocampus pyramidal neurons was then recorded in the CA3 subfield, before and after systemic administration of the selective 5-HTLA antagonist WAY 100635.

[2] = Forced swimming test (FST); type: in vivo, rat; conditions: for change of total time of immobility in FST: Example 3, single i.p. 30 min before test, citalopram or paroxetine 10 mg/kg; for change of total time of immobility in FST / time of immobility in FST: prucalopride 2.5 mg/kg, RS 67333 1.5 mg/kg; for time of immobility in FST: 4 min observation, i.p. 30 min before test, control 88.2±7.2
Excerpt: The “forced swimming test” (FST) is a behavioural test for rodents, which predicts the efficacy of antidepressant drugs (Porsolt et al., 1977; Lucki, 1997). […] The widespread use of this model is largely a result of its ease of use, reliability across laboratories and ability to detect a broad spectrum of antidepressant agents. The test is based on the observation that rats, following initial escape-oriented movements (climbing and swimming), develop an immobile posture when placed in an inescapable cylinder of water. If they are replaced in the same testing apparatus 24 h later, they resume this immobile posture quickly. The immobility is thought to reflect either a failure of persistence in escape-directed behavior (i.e. behavioral despair) or the development of passive behavior that disengages the animal from active forms of coping with stressful stimuli. If antidepressant treatments are given between the two exposures, the subjects will actively persist engaging in escape-directed behaviors for longer periods of time than after vehicle treatment. This will be reflected by a reduction of immobility time, and by an increase of climbing attempts. […] The combination effect of a particular 5-HT4 agonist and a SSRI may be evaluated using the FST model.
Experiments were carried out in male Sprague-Dawley rats (Charles River, St Constant, Québec). We used the FST as previously described (Porsolt et al., 1977). Briefly, the rats experienced a pretest session followed 24 hours later by a test session. For both the pretest and the test sessions, conducted under low illumination (12 lx), the rats were placed in a plastic cylindrical tank (50 cm high by 20 cm in diameter) filled with water at […], with a depth of 40 cm, for which the hind limbs could not reach the tank floor. In all experiments, the pretest was carried out for 15 min and the test for 5 min in the same tank but only the last 4 min were analyzed. Following either pretest or test sessions, rats were dried with a towel and kept warm for 30 min before returning in their home cage. A digital camera recorded on line animal's behavior during the FST, and both time of immobility and climbing attempts were counted. Citalopram hydrobromide (10 mg/kg, i.p.) or paroxetine (10 mg/kg, i.p.) and prucalopride hydrochloride (2.5 mg/kg, i.p.) or RS 67333 hydrochloride (1.5 mg/kg, i.p.) were administered simultaneously 30 minutes before the test session. Animals were divided into 4 groups: vehicle/vehicle, 5-HT4 agonist/vehicle, vehicle/SSRI and 5-HT4 agonist/SSRI. For each compound, distilled water was used as the vehicle. All drug dosages refer to the free base.
Behavioral experiments. We used the FST as previously described (Porsolt et al., 1977). Briefly, rats experienced a pre-test session followed 24 hours later by a test session. For both the pre-test and the test sessions, conducted under low illumination (12 lx), the animals were placed in a plastic cylindrical tank (50 cm high by 20 cm in diameter) filled with water at […], with a depth of 40 cm, for which the hind limbs could not reach the tank floor. In all experiments, the pre-test was carried out for 15 min and the test for 5 min in the same tank but the last 4 min only were analyzed. Prucalopride (2.5 mg/kg, i.p.) and RS 67333 (1.5 mg/kg, i.p.) were administered 30 min before the test session. Following either pre-test or test sessions, rats were dried with a towel and kept warm for 30 min before returning in their home cage. A camera coupled with a computer recorded on line animal behavior during the FST through a specialized digital interface (Videotrack, ViewPoint, Lyon, France). This interface underscored on line the subtraction of video frames. Immobility time in FST was derived from the number of frames (every 40 ms) being below a predefined threshold over FST duration.

[3] = test system: DRN 5-HT neurons; conditions: cited from earlier work; for enhancement of DRN 5-HT neuron mean firing rate: Lucas et al., 2005
[4] = cumulative i.v. WAY 100635 500 μg/kg, 3-day prucalopride 2.5 mg/kg/day or RS 67333 1.5 mg/kg/day
[5] = acute prucalopride 1000 μg/kg i.v., Lucas and Debonnel, 2002

Row | Compound | CA3 pyramidal neuron activity after WAY 100635 ([1]; 3-day RS 67333, as restated in the Discussion) | quisqualate ejection currents required to obtain basal firing ([1]; 3-day treated groups, controls 0 to −2 nA) [nA] | 5-HT1A-mediated inhibitory tonus in the hippocampus [1] | firing activity of CA3 pyramidal neurons after WAY 100635 ([1]; cumulative i.v. WAY 100635 200 μg/kg, 3-day RS 67333 1.5 mg/kg/day) | firing activity of CA3 pyramidal neurons after WAY 100635 ([1]; cumulative i.v. WAY 100635 300 μg/kg, 3-day RS 67333 1.5 mg/kg/day) | firing activity of CA3 pyramidal neurons after WAY 100635 [1, 4] | change of total time of immobility in FST [2] | time of immobility in FST ([2]; Example 6) [s] | increase of climbing in FST ([2]; Example 6, RS 67333 1.5 mg/kg i.p.) | enhancement of DRN 5-HT neuron mean firing rate [3] | increase of DRN 5-HT activity in responder neurons [3, 5] | share of 5-HT neurons responding ("responders") [3, 5] [%]
1 | CCCCN1CCC(CCC(=O)c2cc(Cl)c(N)cc2OC)CC1 [RS 67333, 1-(4-amino-5-chloro-2-methoxyphenyl)-3-(1-n-burtl-4-piperidinyl)-1-propanone] | up to 440 % of pre-drug values | −4 to −6 | strong tonic inhibition | 276 (±52) % of basal values | 378 (±43) % of basal values | 445 (±60) % of baseline | very similar effect | 42.7 ± 4.9 | +94% | 70% |  | 
2 | COCCCN1CCC(NC(=O)c2cc(Cl)c(N)c3c2OCC3)CC1 [prucalopride] |  |  | modest inhibitory tonus |  |  | 191 (±31) % of baseline | −54% | 43.4 ± 3.5 |  | 40-45% | around 100% | 47
